What was measured:
RAW 264.7 cells = assay: Osteoclast differentiation assay; assay type: cell-based, mouse
Erk2 [1] = target: T1, Erk2 (Homo sapiens, UniProt P28482); assay: KINOMEscan displacement assay, Erk2; assay type: binding; details: 10 μM inhibitor
Erk2 [2] = target: T1, Erk2; assay: Erk2 in vitro kinase assay; assay type: biochemical
[3] = system: Rat-2 cells expressing c-Fes-L145P; assay: Soft-agar colony formation, Rat-2 fibroblasts transformed by c-Fes-L145P; assay type: cell-based, rodent
[4] = system: Rat-2 cells expressing c-Fes/v-Fps chimera; assay: Soft-agar colony formation, Rat-2 fibroblasts transformed by c-Fes/v-Fps chimera; assay type: cell-based, rodent
[5] = system: Rat-2 cells transformed by Hck-YF; assay: Soft-agar colony formation, Rat-2 fibroblasts transformed by active Hck; assay type: cell-based, rodent
[6] = system: control Rat-2 cells expressing GFP alone; assay: Growth of control Rat-2 cells in monolayer culture; assay type: cell-based, rodent
[7] = target: Hck-TMYF gatekeeper mutant (Homo sapiens, UniProt P08631, T333M/Y522F); assay type: cell-based
Hck-TMYF gatekeeper mutant, sequence (P08631 22-526 T333M/Y522F limits assumed): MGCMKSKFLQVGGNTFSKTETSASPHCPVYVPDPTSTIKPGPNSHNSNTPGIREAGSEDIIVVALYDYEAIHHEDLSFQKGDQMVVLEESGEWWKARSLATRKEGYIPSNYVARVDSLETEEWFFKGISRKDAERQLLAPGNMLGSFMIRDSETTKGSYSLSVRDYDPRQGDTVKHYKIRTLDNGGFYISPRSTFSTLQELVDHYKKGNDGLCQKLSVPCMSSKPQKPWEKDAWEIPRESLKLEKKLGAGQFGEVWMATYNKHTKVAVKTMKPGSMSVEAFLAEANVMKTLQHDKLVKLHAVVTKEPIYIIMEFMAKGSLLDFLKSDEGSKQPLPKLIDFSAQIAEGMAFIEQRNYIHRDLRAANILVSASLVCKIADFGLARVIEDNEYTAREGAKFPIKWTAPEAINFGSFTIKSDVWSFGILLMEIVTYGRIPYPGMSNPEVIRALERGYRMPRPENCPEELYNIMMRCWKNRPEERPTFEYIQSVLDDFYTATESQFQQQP

Hck-YF = Hck-YF (Homo sapiens, UniProt P08631, Y522F); assay: Kinase autophosphorylation in transformed Rat-2 cells by immunoblotting, Hck-YF; assay type: cell-based
Hck-YF, sequence (P08631 22-526 Y522F limits assumed): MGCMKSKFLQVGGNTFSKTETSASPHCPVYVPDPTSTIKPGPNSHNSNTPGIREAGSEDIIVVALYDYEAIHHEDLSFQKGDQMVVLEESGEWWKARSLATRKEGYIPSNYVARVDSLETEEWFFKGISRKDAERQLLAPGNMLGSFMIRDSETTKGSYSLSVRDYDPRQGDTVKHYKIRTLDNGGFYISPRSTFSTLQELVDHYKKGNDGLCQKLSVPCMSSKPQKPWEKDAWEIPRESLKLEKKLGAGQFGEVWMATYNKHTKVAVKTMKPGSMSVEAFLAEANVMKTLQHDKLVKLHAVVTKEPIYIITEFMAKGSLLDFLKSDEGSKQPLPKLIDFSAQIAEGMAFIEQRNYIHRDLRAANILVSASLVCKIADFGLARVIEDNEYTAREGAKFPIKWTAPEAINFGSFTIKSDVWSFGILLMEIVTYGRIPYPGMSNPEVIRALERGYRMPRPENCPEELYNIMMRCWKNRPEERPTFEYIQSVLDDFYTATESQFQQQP

[8] = system: bone marrow-derived macrophages (BMM); assay: Osteoclast differentiation assay; assay type: cell-based, mouse; details: M-CSF and RANKL
[9] = Rat2, read-out: inhibition of soft-agar colony formation

T1 sequence (P28482 whole entry): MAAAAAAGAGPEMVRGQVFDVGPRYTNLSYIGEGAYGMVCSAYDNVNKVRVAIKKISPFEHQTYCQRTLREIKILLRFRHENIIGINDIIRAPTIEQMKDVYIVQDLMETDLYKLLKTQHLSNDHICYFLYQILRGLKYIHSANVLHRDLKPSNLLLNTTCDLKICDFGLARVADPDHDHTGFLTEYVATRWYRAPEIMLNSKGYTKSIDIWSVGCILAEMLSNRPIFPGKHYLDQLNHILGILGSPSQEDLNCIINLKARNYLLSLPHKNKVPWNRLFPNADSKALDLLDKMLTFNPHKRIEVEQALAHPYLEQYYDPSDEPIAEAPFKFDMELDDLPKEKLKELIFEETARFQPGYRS

Structure (SMILES)	effect on osteoclast differentiation (RAW 264.7 cells; RAW 264.7, 1 μM or 10 μM)	displacement score for Erk2 (Erk2 [1])	potency towards Erk in an in vitro kinase assay (Erk2 [2])	inhibition at 0.1 µM [3, 9] [%]	soft-agar colony growth ([3]; c-Fes transformants, 1 μM)	concentration giving complete inhibition of soft-agar colony formation ([3]; c-Fes-L145P) [nM]	inhibition at 0.1 µM [4, 9] [%]	concentration giving complete inhibition of soft-agar colony formation ([4]; c-Fes/v-Fps) [nM]	inhibition of Hck-mediated soft-agar colony formation ([5]; 200 nM)	soft-agar colony growth ([5]; Hck transformants, 1 μM)	growth of control Rat-2 cells in monolayer culture ([6]; 100 nM)	reduction of growth of control Rat-2 cells expressing GFP alone ([6]; 1 μM, after 72 hrs) [%]	growth of control Rat-2 cells expressing GFP alone ([6]; 3 μM)	IC50 [7] [µM]	IC50 (Hck-YF) [µM]	IC50 values for inhibition of osteoclast differentiation (in words) [8]	inhibition of osteoclast differentiation compared with BMM (RAW 264.7 cells; RAW 264.7, RANKL and VEGF)
Nc1[nH]nc2nnc(-c3c(-c4ccccc4)nn4ccccc34)cc12 [FR180204]	did not influence	–	–	–	–	–	–	–	–	–	–	–	–	–	–	–	–
COc1cc(N2CCC(N3CCN(C)CC3)CC2)ccc1Nc1ncc(Cl)c(Nc2ccccc2S(=O)(=O)C(C)C)n1 [TAE684]	–	0.3	very low potency	> 50	Complete loss	600	> 50	400	only minimal inhibition	Complete loss	only slightly reduced	50	completely abolished	0.685	> 10	submicromolar range	Very similar results
